Molecular target: Nicotinamide phosphoribosyltransferase (Homo sapiens, UniProt P43490)
Test: Binding affinity to NAMPT (unknown origin) assessed as dissociation constant incubated for 30 mins by microscale thermophoresis analysis

Chain of Nicotinamide phosphoribosyltransferase (P43490 whole entry): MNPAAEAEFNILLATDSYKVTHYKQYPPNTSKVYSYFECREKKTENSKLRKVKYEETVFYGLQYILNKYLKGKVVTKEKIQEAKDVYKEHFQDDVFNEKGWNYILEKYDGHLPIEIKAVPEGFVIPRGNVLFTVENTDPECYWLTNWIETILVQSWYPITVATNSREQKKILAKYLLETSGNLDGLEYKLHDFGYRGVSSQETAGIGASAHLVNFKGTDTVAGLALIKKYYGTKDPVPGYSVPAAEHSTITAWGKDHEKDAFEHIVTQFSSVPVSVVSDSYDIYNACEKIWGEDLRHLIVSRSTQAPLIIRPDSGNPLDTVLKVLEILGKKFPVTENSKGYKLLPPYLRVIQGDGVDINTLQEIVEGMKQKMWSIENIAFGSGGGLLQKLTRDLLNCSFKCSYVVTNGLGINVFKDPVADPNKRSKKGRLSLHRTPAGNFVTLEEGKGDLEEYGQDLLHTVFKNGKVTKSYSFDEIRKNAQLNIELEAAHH

- Kd: 6.82 µM
SMILES: O=C(NCc1ccncc1)Nc1ccc(S(=O)(=O)N2CC3CCC(C2)O3)cc1

Source: ChEMBL document CHEMBL5518202, “Discovery of a Potent Nicotinamide Phosphoribosyltransferase Activator for Improving Aging-associated Dysfunctions” (J Med Chem, 2024)
